From patent US6942963B1, “Methods for identifying treatments for neurotoxicity in Alzheimer's disease caused by β-amyloid peptides” (Massachusetts Institute of Technology, priority 1997, dated 2005)
Values joined by “and” are separate entries in the source; they are usually repeats but may differ in a detail not shown here. Equal entries are not always repeated. “Also recorded” adds a separate entry of the source. Where two headings read alike, the source gives them in different places. Non-standard residues stand in square brackets, D forms with d. No end group written: not given here.

How the values were obtained:
Assay type in all cases: cell-based, human
[1] = test system: βAP25-35-induced calcium influx, hNT cells; experiment: βAP25-35-induced calcium influx in hNT cells: effect of channel antagonists and decoy peptides; conditions: for effect on βAP25-35-induced calcium influx: βAP25-35 21 μM; for effect on increase in internal calcium concentration due to βAP25-35: decoy peptide mixed with βAP25-35 at ratio 1:1 (20 μM+20 μM), hNT cells
hNT cells [2] = experiment: Internal calcium concentration [Ca2+]int in hNT cells (fura-2) on exposure to β-amyloid peptide or test agent alone; conditions: for [Ca^2+]int after exposure to unfiltered peptide: hNT cells in Tyr2Ca, peptide at 20 μM (βAP1-42 aggregated 37C, 24 hr), controls 80 nM and 50 nM; for % increase in [Ca^2+]int: unfiltered suspension in Tyr2Ca; for effect of decoy peptide by itself on cytosolic calcium concentrations: decoy peptide alone at 20 μM, filtered stocks, Tyrode's/2 mM Ca
hNT cells [3] = experiment: Membrane depolarization of hNT cells by aggregated Aβ1-42 (DiBAC4(3) fluorescence); conditions: for % ΔF / Δ EM: aggregated Aβ1-42 20 μM
Method: Changes in membrane potential were measured using the fluorescent potentiometric probe DiBAC4(3), (Molecular Probes, Inc., Eugene, Oreg.). This dye, bis-(1,3-dibutylbarbituric acid)trimethine oxonol, detects membrane depolarization, because it enters depolarized cells and binds to intracellular proteins or membranes. […] Hyperpolarization results in extrusion of the anionic dye and thus a decrease in fluorescence. Our measurements use two dyes, fura-2 and DiBAC4(3), since these dyes have excitation wavelengths that are far apart, but have similar emission wavelengths. DiBAC4(3) was added to fura-2AM loaded hNT cells at a concentration of 100 nM in Tyr2Ca. Rapidly alternating measurements of fura-2 (excited at 340 & 380 nm) and DiBAC4(3) (excited at 490 nm) were performed using emission at 516 nm. Both dyes were measured using the special “Fura2-Fluo3” filter set 7400 from Chroma Technology (Brattleboro, Vt.), a Zeiss Axiovert 100 inverted microscope and a photometry system (model “Delta Ram” from Photon Technology International, Inc., Monmouth Junction, N.J.).
The bis-oxonol dye DiBAC4(3) was used as an indicator of transmembrane electrical potential changes (Langheinrich and Daut, J. Physiol. 502:397-408, 1997) when our hNT cells were treated with, for example, the β-amyloid peptide Aβ1-42. The use of this dye enabled us to monitor groups of 5-15 neurons, rather than single cells as would be the case with patch clamping methods. We expected great variability from cell to cell, as was found in our earlier patch clamp work (Sanderson et al., Brain Res. 744:7-14, 1997). The method has been used by many laboratories for the determination of membrane potentials in different cell types. Fluorescence is increased upon membrane depolarization as more dye enters the cytosol, resulting in increased binding to proteins (Braiuner et al., Biochim. Biophys. Acta 771:[…], 1984). Partitioning of bis-oxonol dye between the plasma membrane and the cytosol follows the Nernst equation (Langheinrich and Daut, 1997). Unless otherwise indicated, all measurements were carried out in Tyrode's solution containing 2 mM Ca.
We calibrated the gross fluorescence as a function of membrane potential by treating a culture of hNT neurons, bathed in Tyrode's 2Ca buffer with the usual 3 mM K^+, containing 97 nM DiBAC4(3), with Tyrode's 2Ca buffer containing 40 mM KCl. We measured the gross fluorescence at excitation=490 nm and emission=510 nm for the depolarization by KCl and for depolarization by the Aβ1-42 peptide. We used the formula proposed by Langheinrich and Daut, 1997: % ΔF=(1−Fmin/Fmax)*100=ΔEMmV
where Fmin=fluorescence before treatment, Fmax=fluorescence during treatment, ΔEM mV is the change in membrane potential brought about by the treatment. The calculation based on the expected depolarization by changing from 3 mM KCl to 40 MM KCl gave a value of ΔEM=3.8 mV/1% ΔF.
Groups of hNT neuronal cells (5-17) were exposed to Aβ1-42 (20 μM) that had been incubated at 37° C. for 48 hours; 97 nM DiBAC4(3) was present. Fluorescence was measured as described above; Ex=490 nm, Em=510 nm.

[4] = test system: βAP1-42-induced calcium influx, hNT cells; experiment: βAP1-42 (Aβ1-42) aggregate-induced calcium influx in hNT cells: effect of decoy peptides and channel blockers
[5] = hNT cells, aggregated Aβ1-42 in Tyrode's medium without calcium

## NC(CCCP(=O)(O)O)C(=O)O (racemic) [DL-AP5, DL-2-amino-5-phosphonovaleric acid]
[1]; concentration not stated
  block of calcium influx into hNT neuronal cells caused by βAP25-35: lack of blocking effect
[1]; DL-AP5 at 50 μM
  effect on βAP25-35-induced calcium influx: failed to prevent
[1]; DL-AP5 at 200 μM
  effect on βAP25-35-induced calcium influx: failed to prevent

## [Cl][Al]([Cl])[Cl] [AlCl3]
hNT cells [2]; hNT neuronal cells, from external calcium sources
  calcium influx induced by agent by itself: powerfully induces calcium influx

## O=c1[nH]c2cc([N+](=O)[O-])c([N+](=O)[O-])cc2[nH]c1=O [DNQX, 6,7-dinitroquinoxaline-2,3(1H, 4H)-dione]
[1]; DNQX at 8 μM, applied together
  effect on βAP25-35-induced calcium influx: completely prevented

## O=C(O)CN(CCOCCOCCN(CC(=O)O)CC(=O)O)CC(=O)O [EGTA]
[1]; 20 mM EGTA in addition to βAP25-35 peptide
  internal calcium with chelator in external solution in addition to βAP25-35: decreased internal calcium to control levels

## NC(CO)(CO)CO [TRIS^+, Tromethamine]
hNT cells [3]; hNT cells, 10 mM TRIS^+
  effect on membrane depolarization by aggregated Aβ1-42: moderate decrease in membrane depolarization; also recorded: partially blocks membrane depolarization

## NC1=N[C@H](O)[C@H]2[C@H]3O[C@]4(O)O[C@@H]([C@@H](O)[C@@]2(N1)[C@@H]4O)[C@]3(O)CO [TTX, tetrodotoxin]
[4]
  effect on rise in cytosolic calcium caused by aggregated Aβ1-42: allowed both membrane depolarization and a rise in cytosolic calcium levels; also recorded: the rise in cytosolic calcium
hNT cells [3]
  % ΔF in presence of addition: 17.3%
  effect on membrane depolarization by aggregated Aβ1-42: allowed both membrane depolarization and a rise in cytosolic calcium levels; also recorded: allows both membrane depolarization
  Δ EM in presence of addition: +65.7 mV

## [Cl-].[Cl-].[Mg+2] [magnesium chloride]
[1]
  block of calcium influx into hNT neuronal cells caused by βAP25-35: blocks the influx of Ca^2+; also recorded: can be blocked
  effect on βAP25-35-induced influx of calcium: totally blocked

## GSNKGAIIGLM [βAP25-35]
hNT cells [2]
  [Ca^2+]int after exposure to unfiltered peptide: approximately 200 nM
hNT cells [2]; hNT cells previously exposed to 50 μM βAP25-35 in Tyrode's/0 mM Ca
  internal calcium concentration after restoring external calcium to 2 mM without extra peptide: ~200 % of control levels
hNT cells [2]; hNT cells, 21 μM βAP25-35, single experiment, 4 cells
  [Ca^2+]int relative to control: 270 % of control
hNT cells [2]; hNT cells, Tyrode's/0 mM Ca plus 50 μM βAP25-35, even after 15 minutes
  internal calcium in external Tyrode's solution without calcium: no increase in internal calcium
hNT cells [2]; hNT cells, [βAP25-35] 10 μM
  % increase in [Ca^2+]int: 170 ± 85%
hNT cells [2]; hNT cells, [βAP25-35] 20 μM
  % increase in [Ca^2+]int: 286 ± 179%
hNT cells [2]; hNT cells, [βAP25-35] 50 μM
  % increase in [Ca^2+]int: 343 ± 245%
hNT cells [2]; hNT cells, [βAP25-35] 130 μM
  % increase in [Ca^2+]int: 623 ± 555%
hNT cells [2]; hNT cells, [βAP25-35] 172 μM
  % increase in [Ca^2+]int: 367 ± 108%
hNT cells [2]; hNT cells, [βAP25-35] 334 μM
  % increase in [Ca^2+]int: 508 ± 561%
hNT cells [2]; hNT cells, [βAP25-35] 112-114 μM
  % increase in [Ca^2+]int: 366 ± 260%

## ^+NH3-TVIGTIGGG-CONH2 (H-[dT][dV][dI]G[dT][dI]GGG-NH2; SMILES CC[C@@H](C)[C@@H](NC(=O)[C@H](NC(=O)[C@H](N)[C@H](C)O)C(C)C)C(=O)NCC(=O)N[C@@H](C(=O)N[C@@H](C(=O)NCC(=O)NCC(=O)NCC(N)=O)[C@H](C)CC)[C@H](C)O) [DP3]
hNT cells [2]; hNT cells
  effect of decoy peptide by itself on cytosolic calcium concentrations: raise cytosolic calcium concentrations somewhat
hNT cells [2]; hNT cells, unfiltered DP3 at 20 μM
  effect of unfiltered decoy peptide alone on [Ca^2+]int: an increase in [Ca^2+]int
[1]; DP3 in Tyrode's/2 mM Ca for 1 hour, then βAP25-35 added, both 20 mM [sic]
  effect on calcium influx when decoy peptide added prior to βAP25-35 aggregation: reduced the calcium influx induced by βAP25-35; also recorded: can reduce the βAP25-35-induced Ca^2+ influx
[1]
  effect on increase in internal calcium concentration due to βAP25-35: reduced or abolished the increase in the internal calcium concentration
[1]; unfiltered DP3 mixed with βAP25-35 at molar ratios of 1:2 or greater
  effect on ability of βAP25-35 to induce influx of calcium: marked decrease in the ability of βAP25-35 to induce influx of calcium
[1]; βAP25-35 aggregated 2 hours before DP3 addition, both 20 mM [sic]
  effect on calcium influx when decoy peptide added after βAP25-35 aggregation: did not reduce the induction of calcium influx

## ^+NH3.A.G.V.I.S.I.G.G.G (AGVISIGGG; not fully specified; printed as ^+NH3.A.G.V.I.S.I.G.G.G) [DP7]
hNT cells [2]; hNT cells
  effect of decoy peptide by itself on cytosolic calcium concentrations: raise cytosolic calcium concentrations somewhat
[1]
  effect on increase in internal calcium concentration due to βAP25-35: reduced or abolished the increase in the internal calcium concentration

## ^+NH3.P.V.P.R^+.P.I.P.A.P.COO^− (H-[dP][dV][dP][dR][dP][dI][dP][dA][dP]-OH; also: modified) [DP17]
[4]; βAP1-42 25 μM coincubated with equimolar decoy peptide at 37° C. for 44 hours, hNT cells
  effect on βAP1-42 calcium influx: did not reduce the effect of βAP1-42 on the calcium influx

## ^+NH3.T.G.I.I.A.S.G.G.G. (H-[dT]G[dI][dI][dA][dS]GGG) [DP4]
hNT cells [2]; hNT cells
  effect of decoy peptide by itself on cytosolic calcium concentrations: no effect on cytosolic calcium concentrations
[1]
  effect on increase in internal calcium concentration due to βAP25-35: reduced or abolished the increase in the internal calcium concentration

## ^+NH3.T.T.I.V.S.T.G.G.G (H-[dT][dT][dI][dV][dS][dT]GGG) [DP6]
hNT cells [2]; hNT cells
  effect of decoy peptide by itself on cytosolic calcium concentrations: raise cytosolic calcium concentrations somewhat
[1]
  effect on increase in internal calcium concentration due to βAP25-35: reduced or abolished the increase in the internal calcium concentration

## βAP1-42: β-amyloid peptide, SEQ ID NO:20, purchased from Quality Controlled Biochemicals
hNT cells [2]; Aβ1-42 sample not incubated (protofibrils)
  calcium influx by Aβ1-42 not incubated at 37° C.: did not produce the characteristic calcium influx
hNT cells [2]
  [Ca^2+]int after exposure to unfiltered peptide: approximately 94 nM
hNT cells [2]; hNT cells, aggregated Aβ1-42
  cytosolic calcium level after spontaneous desensitization: ~200 % of control
hNT cells [2]; hNT cells, aggregated Aβ1-42, other experiments with longer time
  new plateau calcium level relative to control values: about twofold
hNT cells [2]; [5]
  rise in cytosolic calcium without external calcium: almost no rise in cytosolic calcium
hNT cells [2]; hNT cells, fura-2, Tyrode's/2Ca
  cytosolic calcium upon addition of aggregated Aβ1-42: large increase in cytosolic calcium
hNT cells [2]; hNT cells, increasing βAP1-42 concentration
  concentration dependence of calcium influx: strong concentration dependence
hNT cells [3]; [Ca^2+] 0 mM, Na^+
  % ΔF: 51.1%
hNT cells [3]; [Ca^2+] 0.4 mM, Na^+
  % ΔF: 8.3%
  Δ EM: +31.6 mV
hNT cells [3]; [Ca^2+] 2 mM, ext. cation NMDG^+
  % ΔF: 44.1%
hNT cells [3]; [Ca^2+] 2 mM, ext. cation Na^+, no addition
  % ΔF: 15.7% and 14.8%
hNT cells [3]; [Ca^2+] 2 mM, ext. cation TEA^+
  % ΔF: 44.8%
hNT cells [3]; [Ca^2+] 10 mM, Na^+
  % ΔF: 15.3%
  Δ EM: +58.3 mV
hNT cells [3]; cultured hNT neuronal cells, Tyrode's/2Ca
  membrane depolarization caused by pre-aggregated Aβ1-42: large membrane depolarization
hNT cells [3]; external Na^+ replaced with equal concentration of TEA^+ or NMDG^+
  membrane depolarization with external Na^+ replaced: large membrane depolarization
hNT cells [3]; [5]
  membrane depolarization without external calcium: greatly increased membrane depolarization
